Measured values taken from the NIST ThermoML archive (doi:10.1021/je7000667).

Assay: xn = mol fraction of the nth substance listed
Details: Gas, Burnett expansion method

FC(C(F)(F)F)C(F)(F)F [1,1,1,2,3,3,3-heptafluoropropane] + FCF
Details | mass density [kg/m3]
360 K, 221.36 kPa, x2 = 0.5155 | 8.234
360 K, 239.67 kPa, x2 = 0.2648 | 11.408
360 K, 243.21 kPa, x2 = 0.7809 | 6.433
360 K, 303.15 kPa, x2 = 0.5155 | 11.36
360 K, 327.36 kPa, x2 = 0.2648 | 15.74
360 K, 333.32 kPa, x2 = 0.7809 | 8.875
360 K, 414 kPa, x2 = 0.5155 | 15.673
360 K, 445.38 kPa, x2 = 0.2648 | 21.715
360 K, 455.62 kPa, x2 = 0.7809 | 12.244
360 K, 563.21 kPa, x2 = 0.5155 | 21.622
360 K, 602.72 kPa, x2 = 0.2648 | 29.96
360 K, 620.87 kPa, x2 = 0.7809 | 16.892
360 K, 761.94 kPa, x2 = 0.5155 | 29.83
360 K, 809.48 kPa, x2 = 0.2648 | 41.334
360 K, 842.09 kPa, x2 = 0.7809 | 23.305
360 K, 1023.1 kPa, x2 = 0.5155 | 41.153
360 K, 1075.4 kPa, x2 = 0.2648 | 57.027
360 K, 1134.1 kPa, x2 = 0.7809 | 32.152
360 K, 1359.1 kPa, x2 = 0.5155 | 56.775
360 K, 1407.1 kPa, x2 = 0.2648 | 78.678
360 K, 1513.7 kPa, x2 = 0.7809 | 44.316
360 K, 1778.5 kPa, x2 = 0.5155 | 78.326
360 K, 1801.2 kPa, x2 = 0.2648 | 108.549
360 K, 1995.5 kPa, x2 = 0.7809 | 61.139
360 K, 2234.4 kPa, x2 = 0.2648 | 149.76
360 K, 2279 kPa, x2 = 0.5155 | 108.059
360 K, 2584.7 kPa, x2 = 0.7809 | 84.349
360 K, 2647.8 kPa, x2 = 0.2648 | 206.618
360 K, 2834.8 kPa, x2 = 0.5155 | 149.078
370 K, 180 kPa, x2 = 0.2648 | 8.265
370 K, 227.73 kPa, x2 = 0.5155 | 8.23
370 K, 246.7 kPa, x2 = 0.2648 | 11.403
370 K, 250.16 kPa, x2 = 0.7809 | 6.429
370 K, 312.04 kPa, x2 = 0.5155 | 11.355
370 K, 337.19 kPa, x2 = 0.2648 | 15.732
370 K, 343.02 kPa, x2 = 0.7809 | 8.87
370 K, 426.48 kPa, x2 = 0.5155 | 15.665
370 K, 459.23 kPa, x2 = 0.2648 | 21.704
370 K, 469.2 kPa, x2 = 0.7809 | 12.238
370 K, 580.8 kPa, x2 = 0.5155 | 21.611
370 K, 622.4 kPa, x2 = 0.2648 | 29.945
370 K, 639.98 kPa, x2 = 0.7809 | 16.884
370 K, 786.9 kPa, x2 = 0.5155 | 29.815
370 K, 837.7 kPa, x2 = 0.2648 | 41.314
370 K, 869.16 kPa, x2 = 0.7809 | 23.293
370 K, 1058.9 kPa, x2 = 0.5155 | 41.133
370 K, 1116.3 kPa, x2 = 0.2648 | 56.999
370 K, 1172.8 kPa, x2 = 0.7809 | 32.136
370 K, 1411 kPa, x2 = 0.5155 | 56.746
370 K, 1467.3 kPa, x2 = 0.2648 | 78.639
370 K, 1569.4 kPa, x2 = 0.7809 | 44.294
370 K, 1854.7 kPa, x2 = 0.5155 | 78.287
370 K, 1891.2 kPa, x2 = 0.2648 | 108.495
370 K, 2076.9 kPa, x2 = 0.7809 | 61.109
370 K, 2371.1 kPa, x2 = 0.2648 | 149.686
370 K, 2392.6 kPa, x2 = 0.5155 | 108.005
370 K, 2705.2 kPa, x2 = 0.7809 | 84.308
370 K, 2859.2 kPa, x2 = 0.2648 | 206.516
370 K, 3006.5 kPa, x2 = 0.5155 | 149.004
390 K, 190.02 kPa, x2 = 0.2648 | 8.257
390 K, 240.4 kPa, x2 = 0.5155 | 8.222
390 K, 260.65 kPa, x2 = 0.2648 | 11.392
390 K, 264.02 kPa, x2 = 0.7809 | 6.423
390 K, 329.74 kPa, x2 = 0.5155 | 11.344
390 K, 356.74 kPa, x2 = 0.2648 | 15.716
390 K, 362.31 kPa, x2 = 0.7809 | 8.862
390 K, 451.27 kPa, x2 = 0.5155 | 15.65
390 K, 486.71 kPa, x2 = 0.2648 | 21.683
390 K, 496.17 kPa, x2 = 0.7809 | 12.226
390 K, 615.63 kPa, x2 = 0.5155 | 21.59
390 K, 661.34 kPa, x2 = 0.2648 | 29.916
390 K, 677.89 kPa, x2 = 0.7809 | 16.867
390 K, 836.32 kPa, x2 = 0.5155 | 29.786
390 K, 893.34 kPa, x2 = 0.2648 | 41.274
390 K, 922.76 kPa, x2 = 0.7809 | 23.271
390 K, 1129.5 kPa, x2 = 0.5155 | 41.093
390 K, 1196.7 kPa, x2 = 0.2648 | 56.943
390 K, 1249.8 kPa, x2 = 0.7809 | 32.105
390 K, 1513 kPa, x2 = 0.5155 | 56.692
390 K, 1584.8 kPa, x2 = 0.2648 | 78.563
390 K, 1679.1 kPa, x2 = 0.7809 | 44.251
390 K, 2003.7 kPa, x2 = 0.5155 | 78.212
390 K, 2065.6 kPa, x2 = 0.2648 | 108.39
390 K, 2236.4 kPa, x2 = 0.7809 | 61.05
390 K, 2613.6 kPa, x2 = 0.5155 | 107.901
390 K, 2634 kPa, x2 = 0.2648 | 149.541
390 K, 2940 kPa, x2 = 0.7809 | 84.226
390 K, 3260.4 kPa, x2 = 0.2648 | 206.316
390 K, 3338.4 kPa, x2 = 0.5155 | 148.86
410 K, 105.73 kPa, x2 = 0.2648 | 4.333
410 K, 106.47 kPa, x2 = 0.7809 | 2.443
410 K, 133.75 kPa, x2 = 0.5155 | 4.316
410 K, 145.48 kPa, x2 = 0.2648 | 5.979
410 K, 146.65 kPa, x2 = 0.7809 | 3.371
410 K, 184.04 kPa, x2 = 0.5155 | 5.954
410 K, 199.99 kPa, x2 = 0.2648 | 8.248
410 K, 201.86 kPa, x2 = 0.7809 | 4.651
410 K, 253.05 kPa, x2 = 0.5155 | 8.214
410 K, 274.54 kPa, x2 = 0.2648 | 11.38
410 K, 277.79 kPa, x2 = 0.7809 | 6.417
410 K, 347.32 kPa, x2 = 0.5155 | 11.332
410 K, 376.14 kPa, x2 = 0.2648 | 15.701
410 K, 381.49 kPa, x2 = 0.7809 | 8.853
410 K, 475.89 kPa, x2 = 0.5155 | 15.634
410 K, 513.94 kPa, x2 = 0.2648 | 21.661
410 K, 522.95 kPa, x2 = 0.7809 | 12.214
410 K, 650.2 kPa, x2 = 0.5155 | 21.568
410 K, 699.84 kPa, x2 = 0.2648 | 29.885
410 K, 715.45 kPa, x2 = 0.7809 | 16.85
410 K, 885.1 kPa, x2 = 0.5155 | 29.756
410 K, 948.18 kPa, x2 = 0.2648 | 41.232
410 K, 975.71 kPa, x2 = 0.7809 | 23.247
410 K, 1199.1 kPa, x2 = 0.5155 | 41.051
410 K, 1275.5 kPa, x2 = 0.2648 | 56.886
410 K, 1325.1 kPa, x2 = 0.7809 | 32.073
410 K, 1613 kPa, x2 = 0.5155 | 56.634
410 K, 1699.6 kPa, x2 = 0.2648 | 78.483
410 K, 1786.7 kPa, x2 = 0.7809 | 44.206
410 K, 2149.2 kPa, x2 = 0.5155 | 78.132
410 K, 2235 kPa, x2 = 0.2648 | 108.28
410 K, 2392.4 kPa, x2 = 0.7809 | 60.988
410 K, 2828 kPa, x2 = 0.5155 | 107.791
410 K, 2887.1 kPa, x2 = 0.2648 | 149.389
410 K, 3168.3 kPa, x2 = 0.7809 | 84.141
410 K, 3641.6 kPa, x2 = 0.2648 | 206.107
410 K, 3658.2 kPa, x2 = 0.5155 | 148.709
